Laboratory results as given in patent US20120095022A1, “DERIVATIVES OF 10-AMINO-1,2,3,4-TETRAHYDROPYRIDO[2,1-A]ISOINDOL-6(10BH)-ONES, METHOD FOR PREPARATION THEREOF AND THERAPEUTIC USES THEREOF” (UNIVERSITE D'ORLEANS, priority 2009, published 2012).

Experiments:
Caco (colon) = assay: Cytotoxicity on human cells, automated nuclei counting: Caco; assay type: cell-based; conditions: exposed 24 h to 48 h, 0.1 to 25 μM
Experimental: (§1) Cytotoxicity: This method is based on an automated imaging analysis. 4.10^3 cells were cultivated on 96-well plates and left for 24 hours so as to bind, to spread and proliferate.
(§2) All the cell lines were cultivated in a DMEM or RPMI (Invitrogen) medium. All these media were completed with antibiotics (penicillin-streptomycin) (Lonza) and 10% by volume of fetal calf serum (Invitrogen). The cells were cultivated at 37° C. with 5% of CO2. The treatments with the molecules to be tested were carried out with increasing concentrations. The control experiments were also carried out by using suitable dilutions of DMSO (maximum 1% DMSO).

NCI (lung) = assay: Cytotoxicity on human cells, automated nuclei counting: NCI; assay type: cell-based; conditions: exposed 24 h to 48 h, 0.1 to 25 μM
Experimental: as §1, §2

MDA-MB 231 (breast) = assay: Cytotoxicity on human cells, automated nuclei counting: MDA-MB 231; assay type: cell-based; conditions: MDA-MB 231 cells, exposed 24 h to 48 h, 0.1 to 25 μM
Experimental: as §1, §2

CDK5/D25 = molecular target: T1, CDK5/D25 (Homo sapiens, UniProt Q00535); assay: CDK5 kinase inhibition (33P-ATP, histone H1); assay type: biochemical; conditions: buffer C, 30° C., 15 μM ATP, read-out: IC50 μM Kinases CDK5
T1 construct: made in house
T1 sequence (Q00535 whole entry): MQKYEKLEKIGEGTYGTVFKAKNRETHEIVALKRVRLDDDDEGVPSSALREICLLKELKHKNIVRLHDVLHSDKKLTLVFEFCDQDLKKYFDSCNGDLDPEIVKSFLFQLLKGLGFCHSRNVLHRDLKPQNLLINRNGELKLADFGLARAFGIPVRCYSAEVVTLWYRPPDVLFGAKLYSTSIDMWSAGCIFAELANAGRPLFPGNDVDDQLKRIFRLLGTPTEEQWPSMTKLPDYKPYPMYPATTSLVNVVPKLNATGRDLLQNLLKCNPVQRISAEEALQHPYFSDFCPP
T1 sequence (Q15078 99-307 partner limits assumed): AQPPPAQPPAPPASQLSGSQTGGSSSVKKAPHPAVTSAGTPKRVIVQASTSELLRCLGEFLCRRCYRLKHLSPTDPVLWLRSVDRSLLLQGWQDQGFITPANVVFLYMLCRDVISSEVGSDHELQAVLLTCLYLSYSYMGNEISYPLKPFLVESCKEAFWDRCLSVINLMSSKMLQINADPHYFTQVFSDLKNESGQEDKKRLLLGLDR
Experimental: The protein kinase inhibition activities of the compounds of the invention are tested according to the following general procedure:
Buffer C: 60 mM β-glycerophosphate, 15 mM p-nitrophenyl-phosphate, 25 mM Mops (pH 7.2), 5 mM EGTA, 15 mM mgCl2, 1 mM DTT, 1 mM sodium vanadate and 1 mM phenylphosphate.
The controls were made with suitable dilutions of DMSO.
ATP (3.000 Ci/mmol.; 10 mCi/mL) in a final volume of 30 μL. After 30 mins of incubation at 30° C., 25 μL of supernatant aliquots were deposited on phosphocellulose Whatman P81 paper pieces of 2.5×3 cm, and after 20 seconds, the filters were washed five times (for at least 5 minutes each time) in a solution of 10 mL of phosphoric acid/1 litre of water. The wet filters were counted in the presence of 1 mL of scintillation fluid ACS (Amersham).

GSK-3αβ = assay: GSK-3 kinase inhibition (GS-1 substrate); conditions: read-out: IC50 μM Kinases GSK3, buffer A, 30° C., 15 μM ATP
DYRK1A = DYRK1A (Homo sapiens, UniProt Q13627); assay: DYRK1A kinase inhibition (Woodtide substrate)
fibroblast = assay: Cytotoxicity on human cells, automated nuclei counting: fibroblast; assay type: cell-based; conditions: exposed 24 h to 48 h, 0.1 to 25 μM
Experimental: as §1, §2

PC3 (prostate) = assay: Cytotoxicity on human cells, automated nuclei counting: PC3; assay type: cell-based; conditions: PC-3, exposed 24 h to 48 h, 0.1 to 25 μM
Experimental: as §1, §2

HCT 116 (colon) = assay: Cytotoxicity on human cells, automated nuclei counting: HCT 116; assay type: cell-based; conditions: HCT 116 cells, exposed 24 h to 48 h, 0.1 to 25 μM
Experimental: as §1, §2

Huh7 (liver) = assay: Cytotoxicity on human cells, automated nuclei counting: Huh7; assay type: cell-based; conditions: Huh-7, exposed 24 h to 48 h, 0.1 to 25 μM
Experimental: as §1, §2

SMILES	melting point	IC50 (CDK5/D25)	IC50 (GSK-3αβ)	IC50 (DYRK1A)	IC50 (Caco (colon))	IC50 (NCI (lung))	IC50 (MDA-MB 231 (breast))	IC50 (fibroblast)	IC50 (PC3 (prostate))	IC50 (HCT 116 (colon))	IC50 (Huh7 (liver))
COc1cc(NC(=O)Nc2cccc3c2C2CC(OC)CCN2C3=O)nc2ccccc12 (centres unmarked) [Compound 55, 1-(2-Methoxy-6-oxo-1,2,3,4,6,10b-hexahydropyrido[2,1-a]isoindol-10-yl)-3-(4-methoxyquinolin-2-yl)urea]	> 260 °C	8.5 µM	0.18 µM	> 10 µM	10 µM	5 µM	15 µM	10 µM	3 µM	2.5 µM	3 µM
O=C1c2cccc(NC(=S)Nc3cc[nH]n3)c2C2CC3(CCN12)SCCS3 (centres unmarked) [Compound 71, 1-(6′-Oxo-3′,4′,6′,10b′-tetrahydro-1′H-spiro[[1,3]dithiolane-2,2′-pyrido[2,1-a]isoindole]-10′-yl)-3-(1H-pyrazol-3-yl)thiourea]	185 °C	> 10 µM	> 10 µM	> 10 µM	15 µM	15 µM	15 µM	25 µM	> 25 µM	7 µM	20 µM
O=C(Nc1ncccn1)Nc1cccc2c1C1CCCCN1C2=O (centres unmarked) [Compound 42, 1-(6-oxo-1,2,3,4,6,10b-hexahydro-pyrido[2,1-a]isoindol-10-yl)-3-pyrimidin-2-yl-urea]	232 °C	> 10 µM	0.75 µM	> 10 µM	2 µM	8 µM	4 µM	2.5 µM	2 µM	4 µM	0.6 µM
O=C(Nc1cnccn1)Nc1cccc2c1C1C[C@@H](O)CCN1C2=O (stereo partly drawn) [Compound 105, 1-((2S)-2-Hydroxy-6-oxo-1,2,3,4,6,10b-hexahydropyrido[2,1-a]isoindol-10-yl)-3-(pyrazin-2-yl)urea]	250 °C	0.084 µM	0.032 µM	> 10 µM	> 25 µM	8 µM	25 µM	12 µM	20 µM	8 µM	4 µM
COC1CCN2C(=O)c3cccc(NC(=O)Nc4cnc(C)cn4)c3C2C1 (centres unmarked) [Compound 59, 1-(2-methoxy-6-oxo-1,2,3,4,6,10b-hexahydropyrido[2,1-a]isoindol-10-yl)-3-(5-methylpyrazin-2-yl)urea]	140 to 142 °C	0.32 µM	0.14 µM	> 10 µM	12 µM	6 µM	6 µM	5 µM	5 µM	3 µM	1.2 µM
O=C(Nc1nc2ccccc2s1)Nc1cccc2c1C1CCCCN1C2=O (centres unmarked) [Compound 34, 1-(Benzo[d]thiazol-2-yl)-3-(6-oxo-1,2,3,4,6,10b-hexahydropyrido[2,1-a]-isoindol-10-yl)urea]	260 °C	16 µM	3.5 µM	88 µM	0.7 µM	4 µM	1.5 µM	2 µM	1 µM	0.5 µM	0.6 µM
Cc1cc(NC(=O)Nc2cccc3c2C2CCCCN2C3=O)no1 (centres unmarked) [Compound 24, 1-(5-Méthylisoxazol-3-yl)-3-(6-oxo-1,2,3,4,6,10b-hexahydropyrido[2,1-a]isoindol-10-yl)urea]	156 °C	2.7 µM	0.033 µM	> 10 µM	3 µM	10 µM	3 µM	12 µM	6 µM	2 µM	3 µM
O=C1c2cccc(NC(=S)Nc3ccccn3)c2C2CC3(CCN12)SCCS3 (centres unmarked) [Compound 70, 1-(6′-Oxo-3′,4′,6′,10b′-tetrahydro-1′H-spiro[[1,3]dithiolane-2,2′-pyrido[2,1-a]isoindole]-10′-yl)-3-(pyridin-2-yl)thiourea]	142 °C	19 µM	2.5 µM	22 µM	2 µM	10 µM	3 µM	20 µM	> 25 µM	2 µM	15 µM
Cc1nc(NC(=O)Nc2cccc3c2C2CCCCN2C3=O)cs1 (centres unmarked) [Compound 35, 1-(2-Methylthiazol-4-yl)-3-(6-oxo-1,2,3,4,6,10b-hexahydropyrido[2,1-a]isoindol-10-yl)urea]	146 °C	0.53 µM	0.12 µM	> 10 µM	0.7 µM	3 µM	1.5 µM	0.4 µM	1.5 µM	0.6 µM	0.9 µM

Now from value to compound, other results behind:

melting point	IC50 (CDK5/D25)	IC50 (GSK-3αβ)	IC50 (DYRK1A)	SMILES	IC50 (Caco (colon))	IC50 (NCI (lung))	IC50 (MDA-MB 231 (breast))	IC50 (fibroblast)	IC50 (PC3 (prostate))	IC50 (HCT 116 (colon))	IC50 (Huh7 (liver))
240 to 242 °C	> 10 µM	0.92 µM	> 10 µM	Cc1cccc(NC(=O)Nc2cccc3c2C2CC4(CCN2C3=O)OCCO4)n1 (centres unmarked) [Compound 46]	10 µM	12 µM	15 µM	20 µM	12 µM	10 µM	12 µM
195 °C	8.1 µM	4.5 µM	92 µM	O=C1c2cccc(NC(=S)Nc3cccc(Br)n3)c2C2CCCCN12 (centres unmarked) [Compound 67, 1-(6-Bromopyridin-2-yl)-3-(6-oxo-1,2,3,4,6,10b-hexahydropyrido[2,1-a]isoindol-10-yl)thiourea]	3 µM	12 µM	4 µM	10 µM	8 µM	2 µM	10 µM
240 °C	7.3 µM	0.068 µM	≥ 10 µM	O=C(Nc1ccc(Br)cn1)Nc1cccc2c1C1CC3(CCN1C2=O)SCCS3 (centres unmarked) [Compound 31, 1-(5-Bromopyridin-2-yl)-3-(6′-oxo-3′,4′,6′,10b′-tetrahydro-1′H-spiro[[1,3]dithiolane-2,2′-pyrido[2,1-a]isoindole]-10′-yl)urea]	5 µM	1.5 µM	4 µM	8 µM	3 µM	1.2 µM	0.8 µM
184 to 186 °C	> 10 µM	0.89 µM	> 10 µM	O=C(Nc1cccc(Br)n1)Nc1cccc2c1C1CC3(CCN1C2=O)OCCO3 (centres unmarked) [Compound 47]	12 µM	20 µM	20 µM	20 µM	6 µM	6 µM	8 µM
> 260 °C	3.1 µM	0.61 µM	> 10 µM	Cc1cccnc1NC(=O)Nc1cccc2c1C1CC3(CCN1C2=O)OCCO3 (centres unmarked) [Compound 45]	> 25 µM	> 25 µM	> 25 µM	> 25 µM	> 25 µM	25 µM	> 25 µM
220 °C	0.48 µM	0.17 µM	3 µM	O=C(Nc1cccc2c1C1CCCCN1C2=O)Nc1ncccc1Br (centres unmarked) [Compound 75, 1-(3-Bromopyridin-2-yl)-3-(6-oxo-1,2,3,4,6,10b-hexahydropyrido[2,1-a]isoindol-10-yl)urea]	5 µM	2 µM	1.5 µM	0.6 µM	7 µM	0.4 µM	0.25 µM
254 °C	0.9 µM	0.026 µM	3.5 µM	O=C(Nc1cccc(F)n1)Nc1cccc2c1C1CCCCN1C2=O (centres unmarked) [Compound 23, 1-(6-Fluoropyridin-2-yl)-3-(6-oxo-1,2,3,4,6,10b-hexahydropyrido[2,1-a]isoindol-10-yl)urea]	0.03 µM	0.3 µM	0.03 µM	0.3 µM	0.03 µM	< 0.01 µM	0.1 µM
